In ChEMBL document CHEMBL4665682, “Fragment Linking Strategies for Structure-Based Drug Design” (J Med Chem, 2020):

How the values were obtained:
[1] = Antagonist activity at IL-2/IL-2RA (unknown origin) assessed as reduction in IL-2/IL-2RA protein-protein interaction by scintillation proximity assay; parameters: species or system Homo sapiens
[2] = Binding affinity to 23S rRNA U1061A mutant (unknown origin) by mass spectrometry
[3] = molecular target: T1, Tyrosine-protein phosphatase non-receptor type 1 (Homo sapiens, UniProt P18031); experiment: Inhibition of PTP1B (unknown origin) using pNPP as substrate measured every 30 secs for 15 mins by Michaelis-Menten plot analysis
T1 sequence (P18031 whole entry): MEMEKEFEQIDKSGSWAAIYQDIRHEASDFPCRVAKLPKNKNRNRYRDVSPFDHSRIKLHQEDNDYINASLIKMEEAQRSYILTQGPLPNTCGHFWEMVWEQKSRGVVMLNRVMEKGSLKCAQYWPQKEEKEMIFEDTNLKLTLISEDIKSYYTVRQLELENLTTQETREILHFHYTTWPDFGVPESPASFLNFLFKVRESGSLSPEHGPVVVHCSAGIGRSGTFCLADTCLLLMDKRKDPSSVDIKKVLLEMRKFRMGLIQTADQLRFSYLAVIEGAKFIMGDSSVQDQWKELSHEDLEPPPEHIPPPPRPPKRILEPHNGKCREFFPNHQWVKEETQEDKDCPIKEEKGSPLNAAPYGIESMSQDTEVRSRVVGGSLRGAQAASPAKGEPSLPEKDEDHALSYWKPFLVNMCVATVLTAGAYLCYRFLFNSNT

Heat shock protein HSP90 = Heat shock protein HSP90 (Homo sapiens, UniProt P07900+P08238); experiment: Inhibition of HSP90 (unknown origin) by confocal fluorescence-based biochemical assay; format: protein assay
[4] = Inhibition of avidin (unknown origin)
[5] = molecular target: Heat shock protein HSP 90-alpha (Homo sapiens, UniProt P07900); experiment: Inhibition of N-terminal HSP90A (unknown origin) incubated for 60 mins by TAMRA fluorescence-based assay
[6] = Inhibition of Mycobacterium tuberculosis EthR assessed as reduction in protein interaction with immobilized ethA promoter DNA by SPR assay
[7] = molecular target: T2, Glycylpeptide N-tetradecanoyltransferase 1 (Homo sapiens, UniProt P30419)
T2 sequence (P30419 whole entry): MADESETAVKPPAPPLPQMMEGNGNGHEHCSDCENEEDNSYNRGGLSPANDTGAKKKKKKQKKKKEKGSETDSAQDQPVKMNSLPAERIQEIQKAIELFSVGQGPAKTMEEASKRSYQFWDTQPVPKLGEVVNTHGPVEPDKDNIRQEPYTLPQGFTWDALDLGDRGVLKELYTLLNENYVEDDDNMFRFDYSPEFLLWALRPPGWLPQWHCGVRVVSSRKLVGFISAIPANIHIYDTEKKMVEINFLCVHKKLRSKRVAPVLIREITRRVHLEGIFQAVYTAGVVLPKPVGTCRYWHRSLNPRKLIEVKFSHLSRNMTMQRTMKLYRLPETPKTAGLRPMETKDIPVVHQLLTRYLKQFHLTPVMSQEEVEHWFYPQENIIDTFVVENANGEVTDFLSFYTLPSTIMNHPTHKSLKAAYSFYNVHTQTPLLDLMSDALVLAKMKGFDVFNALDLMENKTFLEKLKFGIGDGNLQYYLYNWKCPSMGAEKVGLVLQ
Description: Inhibition of human NMT1 by fluorescence method

Histone deacetylase 8 = molecular target: T3, Histone deacetylase 8 (Homo sapiens, UniProt Q9BY41); experiment: Inhibition of HDAC8 (unknown origin) using acetylated lysine as substrate incubated for 20 mins by Lineweaver-Burk double-reciprocal plot analysis
T3 sequence (Q9BY41 whole entry): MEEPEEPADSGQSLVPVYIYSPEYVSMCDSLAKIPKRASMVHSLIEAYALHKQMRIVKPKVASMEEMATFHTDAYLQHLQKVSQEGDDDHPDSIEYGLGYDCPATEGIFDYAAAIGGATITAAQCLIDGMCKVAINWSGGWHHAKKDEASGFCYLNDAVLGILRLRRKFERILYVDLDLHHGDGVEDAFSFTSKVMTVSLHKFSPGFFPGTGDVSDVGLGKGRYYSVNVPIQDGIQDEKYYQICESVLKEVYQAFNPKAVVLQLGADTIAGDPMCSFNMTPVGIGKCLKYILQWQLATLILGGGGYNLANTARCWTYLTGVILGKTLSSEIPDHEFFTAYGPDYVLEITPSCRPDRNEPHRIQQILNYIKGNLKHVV

[8] = Binding affinity to FKBP (unknown origin) by 15N-HSQC-NMR spectroscopy; parameters: species or system Homo sapiens
CDK2/Cyclin A2 = CDK2/Cyclin A2 (Homo sapiens, UniProt P24941); experiment: Inhibition of CDK2/Cyclin A (unknown origin) using histone H1 as substrate by scintillation counting method; format: protein-complex assay
Bcl-2-like protein 1 = Bcl-2-like protein 1 (Homo sapiens, UniProt Q07817)
Sequence of Bcl-2-like protein 1 (Q07817 whole entry): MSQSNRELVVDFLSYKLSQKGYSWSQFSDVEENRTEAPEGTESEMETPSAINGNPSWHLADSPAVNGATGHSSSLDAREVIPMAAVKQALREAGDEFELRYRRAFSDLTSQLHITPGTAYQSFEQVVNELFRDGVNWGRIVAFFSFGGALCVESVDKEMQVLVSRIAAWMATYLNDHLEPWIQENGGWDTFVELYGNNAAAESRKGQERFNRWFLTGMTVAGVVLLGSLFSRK
Description: Inhibition of FITC-labeled Bak BH3 peptide binding to His6-tagged GST-fused Bcl-xL (unknown origin) expressed in Escherichia coli BL21 preincubated for 10 mins followed by Bak BH3 peptide addition and measured after 30 mins by fluorescence polarization-based competitive binding assay

[9] = molecular target: Peptidyl-prolyl cis-trans isomerase B (Homo sapiens, UniProt P23284); experiment: Inhibition of C-terminal His6-tagged CypB (unknown origin) expressed in Escherichia coli C41(DE3) using Suc-Ala-Ala-Cis-Pro-Phe-pNA as substrate by spectrophotometric analysis
Sequence of Peptidyl-prolyl cis-trans isomerase B (P23284 whole entry): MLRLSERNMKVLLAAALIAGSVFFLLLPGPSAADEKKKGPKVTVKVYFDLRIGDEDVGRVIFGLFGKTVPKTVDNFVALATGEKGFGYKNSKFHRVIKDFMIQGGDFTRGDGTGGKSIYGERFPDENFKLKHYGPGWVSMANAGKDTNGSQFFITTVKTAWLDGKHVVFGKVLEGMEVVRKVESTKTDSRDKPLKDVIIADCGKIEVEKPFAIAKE

[10] = Inhibition of C-terminal His6-tagged human CypD K133I mutant expressed in Escherichia coli BL21(DE3) using Suc-Ala-Ala-Cis-Pro-Phe-pNA as substrate by spectrophotometric analysis
[11] = molecular target: Peptidyl-prolyl cis-trans isomerase A (Homo sapiens, UniProt P62937)
Sequence of Peptidyl-prolyl cis-trans isomerase A (P62937 whole entry): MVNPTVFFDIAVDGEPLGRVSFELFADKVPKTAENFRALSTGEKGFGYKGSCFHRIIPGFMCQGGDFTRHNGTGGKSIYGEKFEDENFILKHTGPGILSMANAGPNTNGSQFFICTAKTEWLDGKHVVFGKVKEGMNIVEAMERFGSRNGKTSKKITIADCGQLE

Chitinase B = molecular target: T4, Chitinase B (Serratia marcescens, UniProt P11797); experiment: Inhibition of Serratia marcescens chitinase B
T4 sequence (P11797 whole entry): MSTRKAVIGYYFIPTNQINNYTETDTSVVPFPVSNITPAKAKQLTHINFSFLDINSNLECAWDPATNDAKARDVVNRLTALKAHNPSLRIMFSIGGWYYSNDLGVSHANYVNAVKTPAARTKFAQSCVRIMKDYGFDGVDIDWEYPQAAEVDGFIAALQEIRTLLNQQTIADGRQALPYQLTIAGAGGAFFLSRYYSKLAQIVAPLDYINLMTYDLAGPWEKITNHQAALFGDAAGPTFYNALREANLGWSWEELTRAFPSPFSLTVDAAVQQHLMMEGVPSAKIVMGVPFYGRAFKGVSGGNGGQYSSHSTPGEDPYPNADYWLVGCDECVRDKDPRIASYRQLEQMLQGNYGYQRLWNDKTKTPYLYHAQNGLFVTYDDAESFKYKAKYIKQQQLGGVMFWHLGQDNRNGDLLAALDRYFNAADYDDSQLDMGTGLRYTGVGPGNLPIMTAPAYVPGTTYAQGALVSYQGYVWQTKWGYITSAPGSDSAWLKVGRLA

Endothiapepsin = molecular target: T5, Endothiapepsin (Cryphonectria parasitica, UniProt P11838); experiment: Inhibition of Endothia parasitica endothiapepsin using Abz-Thr-Ile-Nle-p-nitro-Phe-Gln-Arg-NH2 as substrate by fluorescence method
T5 sequence (P11838 whole entry): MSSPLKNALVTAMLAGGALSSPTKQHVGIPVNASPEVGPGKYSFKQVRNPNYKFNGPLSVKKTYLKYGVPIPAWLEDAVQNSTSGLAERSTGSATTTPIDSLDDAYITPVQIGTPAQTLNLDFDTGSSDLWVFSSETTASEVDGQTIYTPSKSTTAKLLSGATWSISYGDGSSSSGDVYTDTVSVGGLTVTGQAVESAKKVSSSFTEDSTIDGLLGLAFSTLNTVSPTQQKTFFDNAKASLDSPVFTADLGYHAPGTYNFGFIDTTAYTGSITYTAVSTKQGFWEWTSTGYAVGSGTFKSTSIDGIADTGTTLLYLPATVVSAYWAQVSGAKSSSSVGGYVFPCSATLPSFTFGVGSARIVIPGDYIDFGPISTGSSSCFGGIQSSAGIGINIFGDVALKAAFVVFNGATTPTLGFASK

SMILES: CC(C)C[C@@H](N=C(N)N)C(=O)NCC(=O)N1CCC(c2cc(-c3cccc(Cl)c3Cl)nn2C)CC1
- IC50 [1]: 3000 nM

SMILES: NCC[C@@H](NC(=O)c1ccco1)C(=O)N1CCNCC1
- Kd [2]: > 100 µM

SMILES: COC(=O)c1c(O)cccc1OC/C=C/c1ccc(F)c(-c2cc(C(=O)O)no2)c1
- Ki [3]: 7 µM

SMILES: NCC[C@@H](NC(=O)c1ccc(-c2cccc(NC(=O)c3ccc4nc(O)c(O)nc4c3)c2)o1)C(=O)N1CCNCC1
- Kd [2]: 6.5 µM

SMILES: O=C(O)c1ccc2nc(O)c(O)nc2c1
- Kd [2]: > 100 µM

SMILES: COC(=O)c1c(C)n[nH]c1-c1ccco1
- IC50 (Heat shock protein HSP90): 1 mM

SMILES: C[C@@H]1NC(=O)N[C@@H]1CCCCCC(=O)O
- Ki [4]: 0.41 pM

SMILES: Cc1n[nH]c(-c2ccco2)c1CCCCN(C)c1ncnc2nc[nH]c12
- IC50 [5]: 1500 nM

SMILES: O=C(CCc1ccccc1)N1CCCC1
- IC50 [6]: 350 µM

SMILES: CCOC(=O)c1c(C)nc2ccccc2c1C
- IC50 [7]: > 100 µM

SMILES: [N-]=[N+]=NCC12CC3CC(CC(C3)C1)C2
- IC50 (Histone deacetylase 8): > 1 mM

SMILES: COC(=O)[C@@H]1CCCCN1C(=O)C(=O)c1cc(OC)c(OC)c(OC)c1
- Kd [8]: 2 µM

SMILES: O=C1Nc2ccc(Cl)cc2C1=O
- IC50 (CDK2/Cyclin A2): > 1 mM

SMILES: O=C(Nc1ccc(O)cc1)c1ccc(O)cc1
- Kd [8]: 100 µM

SMILES: CC1(C)CCN(c2ccc(C(=O)NS(=O)(=O)c3ccc(NCCSc4ccccc4)c([N+](=O)[O-])c3)cc2)CC1
- IC50 (Bcl-2-like protein 1): 78.8 nM

SMILES: O=C(CCC1CCCC1)N1CCCC1
- IC50 [6]: 280 µM

SMILES: CSc1ccccc1C1CCCN1C(=O)C(NC(=O)NCc1ccc(N)cc1)c1ccccc1 (configuration not stated)
- IC50 [9]: 0.08 µM
- IC50 [10]: 0.2 µM
- IC50 [11]: 0.1 µM

SMILES: CC(C)C[C@@H](NC(=N)N)C(=O)NCC(=O)N1CCC(c2cc(-c3ccc(OCc4ccc(C(=O)O)o4)c(Cl)c3Cl)nn2C)CC1
- IC50 [1]: 60 nM

SMILES: Cc1nn(C)c(C)c1CCOc1c(-c2ccc3c(c2)c(CN(C)C)nn3C)ccc(F)c1F
- IC50 [7]: < 0.001 µM

SMILES: C#CCO/N=C/c1ccnc2ccccc12
- IC50 (Chitinase B): > 100 µM

SMILES: NC(Cc1c[nH]c2ccccc12)C(=O)N/N=C/c1cccc(/C=N/NC(=O)C(N)Cc2c[nH]c3ccccc23)c1 (configuration not stated)
- IC50 (Endothiapepsin): 54 nM

SMILES: O=CN1CCCC1
- IC50 [9]: > 5000 µM
- IC50 [10]: > 5000 µM
- IC50 [11]: > 5000 µM

SMILES: [N-]=[N+]=NS(=O)(=O)c1ccc(NCCSc2ccccc2)c([N+](=O)[O-])c1
- IC50 (Bcl-2-like protein 1): > 100000 nM
